Test results reported in patent US4338331A, “Isoindoline derivative and a therapeutic composition thereof” (priority 1979, dated 1982).
“And” between values parts separate entries of the source, which are not always exact repeats. Equal values may be shown once. “Also recorded” adds a separate entry of the source.

Experiments:
[1] = Acute toxicity, oral, mouse; assay type: in vivo; settings: in vivo, mouse, read-out: DL50
Procedure: Acute toxicity was determined orally in the Wister rat and in the Swiss mouse of both sexes.
The animals were kept fasting for at least 12 hours before the tests but whith free access to water. The compound was suspended homogeneously in gum arabic mucilage and was administered, at the set doses, in a volume of 40 ml/kg by means of a gastro-oesophageal probe.
Each dose was tested on ten animals, of which five were male and five female. The weight of the rats varied from 300 to 350 g for the males and from 220 g to 250 g for the females. The weight of the mice, of both sexes, varied from 28 g to 35 g.
The observation lasted ten days.

female Wistar rats = test: Diuretic and saluretic activity: excretion of an aqueous saline load (TABLE 1); assay type: in vivo, Wistar rat; settings: 5 mg/kg oral
Procedure: Both the CM/1 and the Indapamide were administered orally after being suitably dissolved in the following solvent:
The controls were treated with an equal volume of solvent. The experiments were carried out on animals which had regularly fasted for at least 12 hours, but had free access to water.
The sodium and potassium in the urine were determined by a photometric method.
The effect on the excretion of an aqueous saline load was first checked. 18 female Wistar rats were used divided into three groups, one of 8 and two of 5, and these were treated in the following manner:
GROUP A: CONTROLS 1 ml of solvent made up to 50 ml with 0.9% sodium chloride solution, administered by gastric probe, per kg of body weight (=50 ml/kg in terms of volume);
GROUP B: INDAPAMIDE 5 mg/kg in 1 ml/kg of solvent made up to 50 ml/kg with sodium chloride solution, administered by gastric probe;
GROUP C: CM/1,5 mg/kg using the same method as for the Indapamide.
The rats were placed immediately in individual metabolic cages for collecting the urine during the three hours subsequent to the load. The quantity of urine excreted is given as a percentage of the quantity administered. The sodium and potassium are expressed in mEq/3h.
Values of P less than 0.05 have been considered significant.

[2] = tested on: rat with spontaneous hypertension (SHR); test: Hypotensive activity: arterial pressure of the rat with spontaneous hypertension (TABLE 4); assay type: in vivo, SHR male rats; settings: 1.2 mg/kg/day oral
Procedure: The effects of subacute oral treatment with CM/1 on the arterial pressure of the rat with spontaneous hypertension (SHR) were followed on 10 genetically hypertensive (SHR) male rats obtained from Charles River. They were divided at random into two groups of 5 each, and treated in the following manner:
GROUP A: CONTROLS--10% gum arabic, 5 ml/kg/day by oral administration using a gastro-oesophageal probe;
GROUP B: CM/1--1.2 mg/5 ml of gum arabic/kg/day by oral administration using a gastro-oesophageal probe.
The treatment was carried out for 28 consecutive days. The arterial pressure was recorded at regular intervals by the bloodless method, using the "BP Recorder 8005" apparatus of "W+W Electronic".
The measurement was made in the following manner: the tail of the animals was carefully depilated and then inserted into a sleeve of suitable diameter connected by a tube to a pump and a pressure gauge. The tail was then inserted into a circular transducer, which was connected to a pulse counter. When the apparatus was switched on, the pressure increased in the sleeve until the blood flow was arrested.
The pressures were now read from the pressure gauge.
Before beginning the experiments, the animals had been subjected for a week to this procedure in order to accustom them to handling.

[3] = saline load, mean ± standard error, n = 5
[4] = individual rats, base of rats 1-5: 235, 215, 260, 265, 250

Structure (SMILES): CC1c2ccccc2CN1NC(=O)c1ccc(Cl)c(S(N)(=O)=O)c1 (stereo not shown) [CM/1, 1-methyl-2-(3'-sulphamyl-4'-chlorobenzamido)-isoindoline]
- LD50 at 240 h [1]: > 2500 mg/kg
- diuretic and saluretic effect, CM/1 compared with Indapamide (female Wistar rats): considerably greater
- Urine excretion of load in percent of quantity administered (cumulative excretion), 1 hour (female Wistar rats; individual rats): 16.7% and 14.8% and 11.5% and 9.1% and 12.9%
- Urine excretion of load in percent of quantity administered (cumulative excretion), 2 hours (female Wistar rats; individual rats): 68.3% and 32.2% and 48.5% and 64.5% and 48.7%
- Urine excretion of load in percent of quantity administered (cumulative excretion), 3 hours (female Wistar rats; individual rats): 108.8% and 94.5% and 109.2% and 94.8% and 90.4%
- Urine excretion of load in percent of quantity administered (cumulative excretion), 1 hour (female Wistar rats; mean ± standard error, n = 5): 13.0 ± 1.31%
- Urine excretion of load in percent of quantity administered (cumulative excretion), 2 hours (female Wistar rats; mean ± standard error, n = 5): 52.44 ± 6.46%
- Urine excretion of load in percent of quantity administered (cumulative excretion), 3 hours (female Wistar rats; mean ± standard error, n = 5): 99.54 ± 3.93% and 99.5%
- diuretic and saluretic effect (female Wistar rats; relative to the controls): significant diuretic and saluretic effect relative to the controls
- ratio of the sodium to the potassium excreted during the 3 hours (female Wistar rats; saline load): 5.91
- Potassium excretion (female Wistar rats; saline load, individual rats): 0.297 mEq/3h and 0.310 mEq/3h and 0.276 mEq/3h and 0.280 mEq/3h and 0.284 mEq/3h
- Sodium excretion (female Wistar rats; saline load, individual rats): 1.81 mEg/3h and 1.77 mEg/3h and 1.56 mEg/3h and 1.68 mEg/3h and 1.73 mEg/3h
- Potassium excretion (female Wistar rats; [3]): 0.289 ± 0.062 mEq/3h
- Sodium excretion (female Wistar rats; [3]): 1.71 ± 0.043 mEg/3h
- excreted sodium and potassium (female Wistar rats; versus controls): significantly higher than the controls
- Systolic arterial pressure measured bloodlessly, 7th day of treatment [2, 4]: 210 mm Hg and 205 mm Hg and 245 mm Hg and 225 mm Hg
- Systolic arterial pressure measured bloodlessly, 14th day of treatment [2, 4]: 195 mm Hg and 215 mm Hg and 235 mm Hg and 200 mm Hg and 220 mm Hg
- Systolic arterial pressure measured bloodlessly, 21st day of treatment [2, 4]: 195 mm Hg and 210 mm Hg and 220 mm Hg and 180 mm Hg
- Systolic arterial pressure measured bloodlessly, 28th day of treatment [2, 4]: 185 mm Hg and 210 mm Hg and 205 mm Hg
- Systolic arterial pressure measured bloodlessly, 7th day of treatment ([2]; mean, n = 5, base 245.0 ± 9.08): 219.0 ± 7.31 mm Hg
- Systolic arterial pressure measured bloodlessly, 14th day of treatment ([2]; mean, n = 5, base 245.0 ± 9.08): 213.0 ± 7.17 mm Hg
- Systolic arterial pressure measured bloodlessly, 21st day of treatment ([2]; mean, n = 5, base 245.0 ± 9.08): 203.0 ± 7.00 mm Hg
- Systolic arterial pressure measured bloodlessly, 28th day of treatment ([2]; mean, n = 5, base 245.0 ± 9.08): 198.0 ± 5.38 mm Hg
- maximum reduction of the systolic arterial pressure ([2]; recording on the 28th day): 20%
- anti-hypertensive activity ([2]; SHR, 28 days, 1.2 mg/kg/day): significantly reduces the systolic arterial pressure; also recorded: shows anti-hypertensive activity
